Assay results taken from patent publication US12098145B2 (Libra Therapeutics, Inc., priority 2022, dated 2024).

Target: T1, TRPML1 (Homo sapiens, UniProt Q9GZU1)
T1 construct: expressed in transfected cells; host or cells: HEK T-REx cells stably expressing GCaMP6f and TRPML1
Experiment: Cellular TRPML1 assay (FLIPR, GCaMP6f calcium read-out)
Assay type: cell-based
Details: HEKT-REx/GCaMP6f/TRPML1 cells, FLIPR TETRA, kinetic response over 300 seconds; for EC50: read-out: TRPML1 FLIPR pEC50 (converted)
Experimental: Example A: Cellular TRPML1 Assay
The final clone for the TRPML1 assay is HEKT-REx/GCaMP6f/TRPML1. GCaMP6f is a genetically encoded calcium indicator that is stably expressed in this cell line and used as a fluorescent read-out.
Experiments were performed in 384 MTP format. Cells are seeded at 15000 cells/well in 20 μl/well of Optimem+0.5% FBS without selection antibiotics. Twenty-four hours later, cells are assayed for the response to various compounds using the Ca^2+ sensitive GCaMP6f protein stably expressed in the cells as readout.
The experiment was performed in a 384-well format according to the following procedures: • 24 h after seeding, the cells were pre-incubated at room temperature for about 10 min. • Started the experiment at the FLIPR^TETRA by injecting 10 μL/w of 3× concentrated test compounds and controls in Ca^2+ free Tyrode's buffer. Monitored the kinetic response over a period of 300 seconds. • Final DMSO concentration: 0.5%
Data from FLIPR^TETRA measurements were analyzed with the Genedata Screener© software.

T1 sequence (Q9GZU1 whole entry): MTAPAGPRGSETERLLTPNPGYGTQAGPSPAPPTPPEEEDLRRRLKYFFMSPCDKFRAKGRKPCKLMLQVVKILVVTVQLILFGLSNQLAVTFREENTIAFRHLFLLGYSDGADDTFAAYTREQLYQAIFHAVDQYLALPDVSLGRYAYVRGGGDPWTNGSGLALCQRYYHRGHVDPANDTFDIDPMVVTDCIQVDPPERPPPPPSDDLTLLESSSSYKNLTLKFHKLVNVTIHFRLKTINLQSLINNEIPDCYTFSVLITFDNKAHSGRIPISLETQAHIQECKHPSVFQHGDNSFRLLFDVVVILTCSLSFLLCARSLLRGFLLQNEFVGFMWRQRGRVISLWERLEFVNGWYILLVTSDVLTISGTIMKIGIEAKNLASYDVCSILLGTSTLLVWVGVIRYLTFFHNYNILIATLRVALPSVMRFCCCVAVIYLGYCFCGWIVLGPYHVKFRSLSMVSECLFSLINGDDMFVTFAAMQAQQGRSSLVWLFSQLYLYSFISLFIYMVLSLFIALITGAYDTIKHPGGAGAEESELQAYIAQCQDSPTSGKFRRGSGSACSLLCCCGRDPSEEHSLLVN

Work on `Cc1oc(N2CCC(O)C2)nc1C(=O)Nc1ccc(N2CCCCC2)c(F)c1` (stereo not shown) [Example 97, N-(3-fluoro-4-(piperidin-1-yl)phenyl)-2-(3-hydroxypyrrolidin-1-yl)-5-methyloxazole-4-carboxamide] yielded an EC50 of 10 to 100 µM.

In the case of `Cc1oc(N2C3CCC2COC3)nc1C(=O)Nc1ccc(N2CCCCC2)c(F)c1` [Example 98, 2-(3-oxa-8-azabicyclo[3.2.1]octan-8-yl)-N-(3-fluoro-4-(piperidin-1-yl)phenyl)-5-methyloxazole-4-carboxamide], the EC50 was 10 to 100 µM.

`COCc1oc(N2CCCC2)nc1C(=O)Nc1ccc(OC2CCCC2)c(F)c1` [Example 101, N-[4-(cyclopentyloxy)-3-fluorophenyl]-5-(methoxymethyl)-2-(pyrrolidin-1-yl)oxazole-4-carboxamide] was tested, and the EC50 was 10 to 100 µM.

With `COCc1oc(N2CCCC2)nc1C(=O)Nc1cc(F)c(N2CCCCC2)c(F)c1` [Example 102, N-[3,5-difluoro-4-(piperidin-1-yl)phenyl]-5-(methoxymethyl)-2-(pyrrolidin-1-yl) oxazole-4-carboxamide] the EC50 was 1 to 10 µM.

Work on `COCc1oc(N2CCCC2C)nc1C(=O)Nc1ccc(N2CCCCC2)c(F)c1` (stereo not shown) [Example 103, N-(3-fluoro-4-(piperidin-1-yl)phenyl)-5-(methoxymethyl)-2-(2-methylpyrrolidin-1-yl)oxazole-4-carboxamide] yielded an EC50 of 10 to 100 µM.

Molecule `COCc1oc(N2CC3(C2)CC(F)(F)C3)nc1C(=O)Nc1ccc(N2CCCCC2)c(F)c1` [Example 104, 2-{6,6-difluoro-2-azaspiro[3.3]heptan-2-yl}-N-[3-fluoro-4-(piperidin-1-yl)phenyl]-5-(methoxymethyl)oxazole-4-carboxamide] has an EC50 of 1 to 10 µM.

In the case of `COCc1oc(N2CCCC2)nc1C(=O)Nc1ccc(OC2CCCC2(F)F)c(F)c1` (stereo not shown) [Example 105, N-(4-((2,2-difluorocyclopentyl)oxy)-3-fluorophenyl)-5-(methoxymethyl)-2-(pyrrolidin-1-yl)oxazole-4-carboxamide], the EC50 was 1 to 10 µM.

Molecule `Cc1oc(N2CCC(CN3CCC3)C2)nc1C(=O)Nc1ccc(N2CCCCC2)c(F)c1` (stereo not shown) [Example 106, 2-(3-(azetidin-1-ylmethyl)pyrrolidin-1-yl)-N-(3-fluoro-4-(piperidin-1-yl)phenyl)-5-methyloxazole-4-carboxamide] has an EC50 of 10 to 100 µM.

With `Cc1oc(N2CCC(CN3CCC(F)(F)CC3)C2)nc1C(=O)Nc1ccc(N2CCCCC2)c(F)c1` (stereo not shown) [Example 107, 2-(3-((4,4-difluoropiperidin-1-yl)methyl)pyrrolidin-1-yl)-N-(3-fluoro-4-(piperidin-1-yl)phenyl)-5-methyloxazole-4-carboxamide] the EC50 was 10 to 100 µM.

Molecule `CC(C)OCc1oc(N2CCCC2)nc1C(=O)Nc1ccc(OC2CCCC2(F)F)c(F)c1` (stereo not shown) [Example 109] has an EC50 of 1 to 10 µM.

`CCCc1oc(N2CCCC2)nc1C(=O)Nc1ccc(OC2CCCC2(F)F)c(F)c1` (stereo not shown) [Example 110, N-(4-((2,2-difluorocyclopentyl)oxy)-3-fluorophenyl)-5-propyl-2-(pyrrolidin-1-yl)oxazole-4-carboxamide] showed an EC50 of 1 to 10 µM.

`Cc1oc(-n2cccc2)nc1C(=O)Nc1ccc(N2CCCCC2)c(F)c1` [Example 113, N-(3-fluoro-4-(piperidin-1-yl)phenyl)-5-methyl-2-(1H-pyrrol-1-yl)oxazole-4-carboxamide] gave an EC50 of 1 to 10 µM.

In the case of `Cc1oc(N2CCCCC2)nc1C(=O)Nc1ccc(N2CCCCC2)c(F)c1` [Example 114, N-(3-fluoro-4-(piperidin-1-yl)phenyl)-5-methyl-2-(piperidin-1-yl)oxazole-4-carboxamide], the EC50 was 10 to 100 µM.

Work on `Cc1oc(N(C)C(C)C)nc1C(=O)Nc1ccc(N2CCCCC2)c(F)c1` [Example 115, N-(3-fluoro-4-(piperidin-1-yl)phenyl)-2-(isopropyl(methyl)amino)-5-methyloxazole-4-carboxamide] yielded an EC50 of 10 to 100 µM.

For `Cc1oc(N(C)C)nc1C(=O)Nc1ccc(N2CCCCC2)c(F)c1` [Example 117, 2-(dimethylamino)-N-(3-fluoro-4-(piperidin-1-yl)phenyl)-5-methyloxazole-4-carboxamide], the EC50 was 10 to 100 µM.

`Cc1oc(N2CCCC2C)nc1C(=O)Nc1ccc(N2CCCCC2)c(F)c1` (stereo not shown) [Example 119, N-(3-fluoro-4-(piperidin-1-yl)phenyl)-5-methyl-2-(2-methylpyrrolidin-1-yl)oxazole-4-carboxamide] gave an EC50 of 1 to 10 µM.

With `Cc1oc(N2CCC(F)(F)C2)nc1C(=O)Nc1ccc(N2CCCCC2)c(F)c1` [Example 121, 2-(3,3-difluoropyrrolidin-1-yl)-N-(3-fluoro-4-(piperidin-1-yl)phenyl)-5-methyloxazole-4-carboxamide] the “TRPML1 FLIPR pEC50” value was “C (C = 5.0-4.0)”.

Work on `Cc1oc(N2CCC(C)C2)nc1C(=O)Nc1ccc(N2CCCCC2)c(F)c1` (stereo not shown) [Example 122, N-(3-fluoro-4-(piperidin-1-yl)phenyl)-5-methyl-2-(3-methylpyrrolidin-1-yl)oxazole-4-carboxamide] yielded an EC50 of 10 to 100 µM.

`Cc1oc(N2C[C@H]3CCO[C@H]3C2)nc1C(=O)Nc1ccc(N2CCCCC2)c(F)c1` [Example 123, N-(3-fluoro-4-(piperidin-1-yl)phenyl)-2-((3aR,6aR)-hexahydro-5H-furo[2,3-c]pyrrol-5-yl)-5-methyloxazole-4-carboxamide] showed an EC50 of 1 to 10 µM.

`CCC1(CC)CN(c2nc(C(=O)Nc3cc(F)c(OC4CCCC5(CC5)C4)c(F)c3)c(CC(F)(F)F)o2)C1` (stereo not shown) [Example 132, 2-(3,3-diethylazetidin-1-yl)-N-(3,5-difluoro-4-(spiro[2.5]octan-5-yloxy)phenyl)-5-(2,2,2-trifluoroethyl)oxazole-4-carboxamide] showed an EC50 of 1 to 10 µM.

In the case of `COC1(C)CN(c2nc(C(=O)Nc3ccc(OC4CC5CCC(C4)O5)c(F)c3)c(CC(F)(F)F)o2)C1` (stereo not shown) [Example 133, N-(4-((8-oxabicyclo[3.2.1]octan-3-yl)oxy)-3-fluorophenyl)-2-(3-methoxy-3-methylazetidin-1-yl)-5-(2,2,2-trifluoroethyl)oxazole-4-carboxamide], the EC50 was 1 to 10 µM.

Molecule `CCC1(CC)CN(c2nc(C(=O)Nc3cc(F)c(OC4CCCC5(CCC5)C4)c(F)c3)c(CC(F)(F)F)o2)C1` (stereo not shown) [Example 134, 2-(3,3-diethylazetidin-1-yl)-N-(3,5-difluoro-4-(spiro[3.5]nonan-6-yloxy)phenyl)-5-(2,2,2-trifluoroethyl)oxazole-4-carboxamide] has an EC50 of 1 to 10 µM.

`O=C(Nc1cc(F)c(OCC23CC(C2)C3)c(F)c1)c1nc(N2CCCC2)oc1CC(F)(F)F` [Example 136, N-(4-(bicyclo[1.1.1]pentan-1-ylmethoxy)-3,5-difluorophenyl)-2-(pyrrolidin-1-yl)-5-(2,2,2-trifluoroethyl)oxazole-4-carboxamide] gave an EC50 of 0.01 to 1 µM.

Work on `CCC1(CC)CN(c2nc(C(=O)Nc3cc(F)c(OC4CCCOC4)c(F)c3)c(CC(F)(F)F)o2)C1` (stereo not shown) [Example 137, 2-(3,3-diethylazetidin-1-yl)-N-(3,5-difluoro-4-((tetrahydro-2H-pyran-3-yl)oxy)phenyl)-5-(2,2,2-trifluoroethyl)oxazole-4-carboxamide] yielded an EC50 of 0.01 to 1 µM.

For `O=C(Nc1cc(F)c(OC2CCC3(CC3)C2)c(F)c1)c1nc(N2CCCC2)oc1CC(F)(F)F` (stereo not shown) [Example 138, N-(3,5-difluoro-4-(spiro[2.4]heptan-5-yloxy)phenyl)-2-(pyrrolidin-1-yl)-5-(2,2,2-trifluoroethyl)oxazole-4-carboxamide], the EC50 was 0.01 to 1 µM.

Molecule `O=C(Nc1cc(F)c(OC2CC3(CCC3)C2)c(F)c1)c1nc(N2CCCC2)oc1CC(F)(F)F` [Example 139, N-(3,5-difluoro-4-(spiro[3.3]heptan-2-yloxy)phenyl)-2-(pyrrolidin-1-yl)-5-(2,2,2-trifluoroethyl)oxazole-4-carboxamide] has an EC50 of 10 to 100 µM.

`O=C(Nc1cc(F)c(OC2CC3CCC2C3)c(F)c1)c1nc(N2CCCC2)oc1CC(F)(F)F` (stereo not shown) [Example 141, N-(4-(bicyclo[2.2.1]heptan-2-yloxy)-3,5-difluorophenyl)-2-(pyrrolidin-1-yl)-5-(2,2,2-trifluoroethyl)oxazole-4-carboxamide] was tested, and the EC50 was 0.01 to 1 µM.

`COC1(C)CN(c2nc(C(=O)Nc3ccc(O[C@@H]4C[C@@H]5C[C@@H]5C4)c(C#N)c3)c(CC(F)(F)F)o2)C1` [Example 146, N-(4-(cis-bicyclo[3.1.0]hexan-3-yloxy)-3-cyanophenyl)-2-(3-methoxy-3-methylazetidin-1-yl)-5-(2,2,2-trifluoroethyl)oxazole-4-carboxamide] was tested, and the EC50 was 1 to 10 µM.

Work on `COCCN(CC(C)C)c1nc(C(=O)Nc2cc(F)c(O[C@@H]3C[C@@H]4C[C@@H]4C3)c(F)c2)c(CC(F)(F)F)o1` [Example 147, N-(4-(cis-bicyclo[3.1.0]hexan-3-yloxy)-3,5-difluorophenyl)-2-(isobutyl(2-methoxyethyl)amino)-5-(2,2,2-trifluoroethyl)oxazole-4-carboxamide] yielded an EC50 of 1 to 10 µM.

For `CCC1(OC)CN(c2nc(C(=O)Nc3cc(F)c(OC4C[C@@H]5CC[C@H]4C5)c(F)c3)c(CC(F)(F)F)o2)C1` (stereo partly drawn) [Example 151, N-(4-(((1S,4R)-bicyclo[2.2.1]heptan-2-yl)oxy)-3,5-difluorophenyl)-2-(3-ethyl-3-methoxyazetidin-1-yl)-5-(2,2,2-trifluoroethyl)oxazole-4-carboxamide], the EC50 was 0.01 to 1 µM.

`CCCN(CCOC)c1nc(C(=O)Nc2cc(F)c(O[C@@H]3C[C@@H]4C[C@@H]4C3)c(F)c2)c(CC(F)(F)F)o1` [Example 152, N-(4-(cis-bicyclo[3.1.0]hexan-3-yloxy)-3,5-difluorophenyl)-2-((2-methoxyethyl)(propyl)amino)-5-(2,2,2-trifluoroethyl)oxazole-4-carboxamide] showed an EC50 of 10 to 100 µM.
